Measured values from patent US5208240A, “8-substituted purines as selective adenosine receptor agents” (Merrell Dow Pharmaceuticals Inc., priority 1991, dated 1993).
pIC50: −log10 of the molar value.

Columns and labels:
A1-adenosine receptor = test: Adenosine A1 receptor binding (method of Goodman et al.)
Protocol: (§1) IC50 values for A1 -adenosine receptor binding is determined according to the method of Goodman et al. [Mol. Pharmacol. 21:329-35, 1982]. IC50 values for A2 -adenosine receptor binding is determined according to the method of Bruns et al. [Mol. Pharmacol. 29:331-46, 1986].

A2-adenosine receptor = target: T1, A2-adenosine receptor (Rattus norvegicus, UniProt P30543); test: Adenosine A2 receptor binding (method of Bruns et al.)
T1 construct: from tissue
T1 sequence (P30543 whole entry): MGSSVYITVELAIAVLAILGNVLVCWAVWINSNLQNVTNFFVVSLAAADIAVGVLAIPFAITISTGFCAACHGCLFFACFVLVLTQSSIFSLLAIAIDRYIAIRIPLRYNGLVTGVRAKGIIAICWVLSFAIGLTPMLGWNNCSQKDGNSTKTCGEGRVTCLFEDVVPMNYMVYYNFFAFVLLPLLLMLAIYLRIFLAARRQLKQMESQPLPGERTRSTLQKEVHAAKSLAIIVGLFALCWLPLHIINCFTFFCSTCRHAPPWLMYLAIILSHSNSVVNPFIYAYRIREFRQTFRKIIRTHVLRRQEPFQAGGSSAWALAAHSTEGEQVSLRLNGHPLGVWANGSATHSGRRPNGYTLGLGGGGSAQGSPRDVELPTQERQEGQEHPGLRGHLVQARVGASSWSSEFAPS
Protocol: as §1

Structure (SMILES) | pIC50 (A1-adenosine receptor) | pIC50 (A2-adenosine receptor)
CCCn1c(=O)c2nc(C(C)Cc3ccc(OCC(=O)NCCN)cc3)[nH]c2n(CCC)c1=O (single isomer, unassigned; (+)) [Compound 101993, (+)-N (2-Aminoethyl)-2-[4-[2-(2,3,6,9-tetrahydro-1,3-dipropyl-2,6-dioxo-1H-purin-8-yl)propyl]phenoxy]-acetamide] | 7.22 | 5.74
CCCn1c(=O)c2nc(C(C)Cc3ccc(OCC(=O)NCCN)cc3)[nH]c2n(CCC)c1=O (single isomer, unassigned; (-)) [Compound 100991, (-)-N-(2-Aminoethyl)-2-[4-[2-(2,3,6,9-tetrahydro-1,3-dipropyl-2,6-dioxo-1H-purin-8-yl)propyl]phenoxy]-acetamide] | 8.00 | 6.52
CCCn1c(=O)c2nc(C(C)Cc3ccc(OCC(=O)NCCN)cc3)[nH]c2n(CCC)c1=O (stereo not drawn) [Compound 101345, N-(2-Aminoethyl)-2-[4-[2-(2,3,6,9-tetrahydro-1,3-dipropyl-2,6-dioxo-1H-purin-8-yl)propyl]phenoxy]-acetamide] | 7.85 | 7.44
CCCn1c(=O)c2nc(C(CC)c3ccc(OCC(=O)O)cc3)[nH]c2n(CCC)c1=O (stereo not drawn) [Compound 101673, 2-[4-[1-(2,3,6,9-Tetrahydro-1,3-dipropyl-2,6-dioxo-1H-purin-8-yl)propyl]phenoxy]acetic acid] | 5.93 | < 5.00
CCCn1c(=O)c2nc(C(C)Cc3ccc(OCC(=O)O)cc3)[nH]c2n(CCC)c1=O (stereo not drawn) [Compound 101699, 2-[4-[2-(2,3,6,9-Tetrahydro-1,3-dipropyl-2,6-dioxo-1H-purin-8-yl)propyl]phenoxy]acetic acid] | 6.49 | 5.24
CCCn1c(=O)c2nc(C(CC)c3ccc(OCC(=O)NCCN)cc3)[nH]c2n(CCC)c1=O (stereo not drawn) [Compound 102130, N-(2Aminoethyl)-2-[4-[1-(2,3,6,9-tetrahydro-1,3-dipropyl-2,6-dioxo-1H-purin-8-yl)propyl]phenoxy]-acetamide] | 8.36 | 7.22
